How the values were obtained:
[1] = target: T1, nicotinic acetylcholine receptor (Torpedo nAChR, α2βγδ), α subunit (Tetronarce californica, UniProt P02710+P02712+P02714+P02718); test: [3H]PCP radioligand displacement; type: binding
[2] = target: T1, nicotinic acetylcholine receptor (Torpedo nAChR, α2βγδ), α subunit; test: [3H]PCP radioligand displacement, centrifugation assay; type: binding

T1 sequence (P02710 25-461): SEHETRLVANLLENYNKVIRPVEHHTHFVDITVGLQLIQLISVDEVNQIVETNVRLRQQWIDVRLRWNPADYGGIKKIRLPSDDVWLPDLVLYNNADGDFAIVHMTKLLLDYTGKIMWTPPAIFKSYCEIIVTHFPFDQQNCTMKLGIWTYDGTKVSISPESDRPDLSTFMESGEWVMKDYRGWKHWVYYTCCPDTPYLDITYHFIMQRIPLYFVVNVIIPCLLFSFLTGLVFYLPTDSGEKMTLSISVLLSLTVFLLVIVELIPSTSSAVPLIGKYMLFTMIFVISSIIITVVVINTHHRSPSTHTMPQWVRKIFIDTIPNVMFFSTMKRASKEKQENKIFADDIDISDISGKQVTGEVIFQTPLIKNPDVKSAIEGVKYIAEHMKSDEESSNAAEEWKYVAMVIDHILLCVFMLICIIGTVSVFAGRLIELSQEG
T1 sequence (P02712 25-493): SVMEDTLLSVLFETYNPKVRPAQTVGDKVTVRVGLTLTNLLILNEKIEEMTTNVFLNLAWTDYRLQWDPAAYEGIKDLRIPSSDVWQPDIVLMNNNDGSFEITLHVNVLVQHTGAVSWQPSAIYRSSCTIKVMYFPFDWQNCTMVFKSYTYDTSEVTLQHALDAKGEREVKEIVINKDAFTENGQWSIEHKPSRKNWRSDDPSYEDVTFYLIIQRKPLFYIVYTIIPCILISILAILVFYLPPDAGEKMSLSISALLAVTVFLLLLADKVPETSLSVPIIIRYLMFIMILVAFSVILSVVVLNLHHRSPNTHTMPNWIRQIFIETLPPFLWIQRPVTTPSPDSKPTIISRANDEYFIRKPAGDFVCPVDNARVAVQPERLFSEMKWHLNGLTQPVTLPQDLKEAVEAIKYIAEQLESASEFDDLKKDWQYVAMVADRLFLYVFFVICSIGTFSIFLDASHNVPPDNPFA
T1 sequence (P02714 18-506): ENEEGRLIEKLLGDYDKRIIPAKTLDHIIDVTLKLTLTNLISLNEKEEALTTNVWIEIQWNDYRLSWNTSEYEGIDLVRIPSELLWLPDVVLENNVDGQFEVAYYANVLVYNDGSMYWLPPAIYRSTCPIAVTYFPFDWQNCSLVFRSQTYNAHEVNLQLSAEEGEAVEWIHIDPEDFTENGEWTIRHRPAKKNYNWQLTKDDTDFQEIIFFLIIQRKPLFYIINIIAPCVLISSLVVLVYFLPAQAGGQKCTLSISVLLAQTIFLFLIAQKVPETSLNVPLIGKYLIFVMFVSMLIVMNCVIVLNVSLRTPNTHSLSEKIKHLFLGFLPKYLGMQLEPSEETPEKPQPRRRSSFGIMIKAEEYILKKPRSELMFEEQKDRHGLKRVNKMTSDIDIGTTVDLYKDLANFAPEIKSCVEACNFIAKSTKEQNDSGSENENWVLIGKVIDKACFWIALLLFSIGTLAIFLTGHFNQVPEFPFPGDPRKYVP
T1 sequence (P02718 22-522): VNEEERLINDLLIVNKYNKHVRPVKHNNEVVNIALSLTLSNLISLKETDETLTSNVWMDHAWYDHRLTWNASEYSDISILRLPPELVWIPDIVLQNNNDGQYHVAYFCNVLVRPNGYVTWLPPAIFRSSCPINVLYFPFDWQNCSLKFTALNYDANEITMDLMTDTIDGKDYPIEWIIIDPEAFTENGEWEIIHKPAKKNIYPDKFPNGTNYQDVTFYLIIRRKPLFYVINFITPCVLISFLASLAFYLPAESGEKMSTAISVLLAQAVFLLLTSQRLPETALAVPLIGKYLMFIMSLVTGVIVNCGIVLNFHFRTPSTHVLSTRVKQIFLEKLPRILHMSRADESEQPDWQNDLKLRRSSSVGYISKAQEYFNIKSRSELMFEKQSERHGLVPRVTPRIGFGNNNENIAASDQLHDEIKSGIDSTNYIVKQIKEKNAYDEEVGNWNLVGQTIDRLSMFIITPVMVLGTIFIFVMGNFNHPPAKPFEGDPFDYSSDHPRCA

Row | Structure (SMILES) | IC50 [1] [µM] | IC50 [2] [µM]
1 | CN(C)CCCN1c2ccccc2Sc2ccc(Cl)cc21 [CPZ, chlorpromazine] | 2.3 ± 0.4 | 
2 | CN(C)CCCN1c2ccccc2[S+]([O-])c2ccc(Cl)cc21 (stereo not drawn) [CPZsulfoxide, chlorpromazine sulfoxide] |  | 69 ± 6
3 | CN(C)CCCN1c2ccccc2Sc2ccccc21 [promazine] |  | 3.5 ± 0.2

Source: article PMC2878666 (Biochemistry, 2009)
